In patent US7393939B2, “Placental organic anion transporter and gene thereof” (Japan Science and Technology Corporation, priority 1999, dated 2008):
“Also recorded” adds a separate entry of the source. Where a name gives a salt, the structure may show the parent alone. Read-outs that look alike come from different tables or passages of the source.

What was measured:
Assay type in all cases: cell-based
OAT4 [1] = target: T1, OAT4 (Homo sapiens, UniProt Q9NSA0); assay: Inhibition experiment: ^3H-estrone sulfate uptake in OAT4 cRNA-injected oocytes with various compounds; conditions: 50 nM ^3H-estrone sulfate; 500 μM unlabeled compound; FIG. 4
T1 construct: cRNA (an RNA complementary to cDNA) was prepared from a plasmid containing this cDNA; expressed in transfected cells; host or cells: Xenopus laevis oocytes injected with OAT4 cRNA (transcribed in vitro with T7 RNA polymerase from plasmid pZL holding the hOAT4 cDNA)
T1 sequence (Q9NSA0 1-550): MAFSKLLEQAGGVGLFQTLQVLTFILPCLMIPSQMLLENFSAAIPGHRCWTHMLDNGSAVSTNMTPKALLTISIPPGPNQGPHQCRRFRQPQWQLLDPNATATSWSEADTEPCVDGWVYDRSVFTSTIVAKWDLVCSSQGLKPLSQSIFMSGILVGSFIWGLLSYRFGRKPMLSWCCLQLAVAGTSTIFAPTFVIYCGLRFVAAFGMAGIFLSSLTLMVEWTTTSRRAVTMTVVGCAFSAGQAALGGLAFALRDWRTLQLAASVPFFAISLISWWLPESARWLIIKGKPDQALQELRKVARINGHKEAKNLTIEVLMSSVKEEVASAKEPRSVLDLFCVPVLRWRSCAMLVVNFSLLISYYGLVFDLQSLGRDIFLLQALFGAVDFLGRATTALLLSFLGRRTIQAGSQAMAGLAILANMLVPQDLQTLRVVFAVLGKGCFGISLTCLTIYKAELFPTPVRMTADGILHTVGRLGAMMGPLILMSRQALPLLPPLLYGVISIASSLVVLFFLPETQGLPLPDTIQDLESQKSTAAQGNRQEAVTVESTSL
Experimental: Further, in order to investigate the substrate selectivity of OAT4 of the present invention, various ionic substances were added to an incorporation experimental system of ^3H-estrone sulfate and the influence thereby was tested (Inhibition Experiment).
In order to further investigate the substrate selectivity of OAT4, various anionic substances were added to a system in an uptake experiment system of ^3H-estrone sulfate in oocytes into which OAT4 cRNA was injected and the influence was investigated (inhibition experiment). An uptake experiment of ^3H-estrone sulfate was carried out according to the above-mentioned method using oocytes into which OAT4 cRNA was injected. Uptake of 50 nM ^3H-estrone sulfate was measured in the presence and absence of 500 μM of various compounds (unlabeled).

OAT4 [2] = target: T1, OAT4; assay: Inhibitory test of OAT4 by sulfate conjugates and glucuronic acid conjugates; conditions: FIG. 5
OAT4 [3] = target: T1, OAT4
Experimental: In order to confirm that the resulting OTA4 has an organic anion transport activity, cRNA (an RNA complementary to cDNA) was prepared from a plasmid containing this cDNA according to a method of Sekine, et al. (Sekine, T., et al., J. Biol. Chem., volume 272, pages 18526-18529, 1997) and injected into oocytes of Xenopus laevis and the oocytes were subjected to an incorporation experiment for various organic anions and organic cations which were labeled with radioisotopes.
From an OAT4 cDNA-containing plasmid was prepared cRNA (an RNA complementary to cDNA) in vitro using a T7 RNA polymerase (Sekine, T., et al., J. Biol. Chem., volume 272, pages 18526-18529, 1997).
The resulting cRNA was injected into oocytes of Xenopus laevis according to the already-reported method (Sekine, T., et al., J. Biol. Chem., volume 272, pages 18526-18529, 1997) and the oocytes were subjected to an incorporation experiment using various labeled organic anions and organic cations.

OAT4 [4] = target: T1, OAT4; assay: Cation (sodium) dependency of estrone sulfate transport via OAT4 in oocytes; conditions: extracellular sodium substituted with lithium and choline; FIG. 3
Experimental: Dependency of the OAT4 of the present invention on sodium in an organic anion transport was investigated. Incorporation of estrone sulfate by OAT4 was tested in the presence of various extracellular cations.
Sodium-dependency of OAT4 in an organic anion transport was investigated. Even when extracellular sodium was substituted with lithium and choline, there was no change in the transport of estrone sulfate via OAT4 and it was clarified that OAT4 is an organic anion transporter which is independent on extracellular sodium (refer to FIG. 3).

OAT4 [5] = target: T1, OAT4; assay: Michaelis-Menten kinetic test of organic anion transport by OAT4 in oocytes injected with OAT4 cRNA; conditions: FIG. 2
Experimental: After that, the above-mentioned oocytes into which OAT4 cRNA was injected was used for checking the changes in the amount of estrone sulfate, dehydroepiandrosterone sulfate and ochratoxin A incorporated by OAT4 of the present invention at various concentrations whereby a Michaelis-Menten dynamic test for an organic anion transport was carried out.
A Michaelis-Menten dynamic test was carried out for an organic anion transport of OAT4. Changes in the uptake amount of various concentrations of estrone sulfate and dehydroepiandrosterone sulfate by OAT4 were tested whereby concentration dependency of those substrates by OAT4 was investigated. The uptake experiment of labeled estrone sulfate and dehydroepiandrosterone sulfate was carried out according to the above-mentioned method using oocytes into which OAT4 cRNA was injected.

## O=C1OC(c2ccc(O)c(S(=O)(=O)O)c2)(c2ccc(O)c(S(=O)(=O)O)c2)c2c(Br)c(Br)c(Br)c(Br)c21 [bromosulfophthalein]
OAT4 [1]
  inhibition of transport of ^3H-estrone sulfate by OAT4: significantly inhibited

## CCCCNc1cc(C(=O)O)cc(S(N)(=O)=O)c1Oc1ccccc1 [bumetanide]
OAT4 [1]
  inhibition of transport of ^3H-estrone sulfate by OAT4: significantly inhibited

## C[C@H](CCC(=O)O)[C@H]1CC[C@H]2[C@@H]3[C@H](O)C[C@@H]4C[C@H](O)CC[C@]4(C)[C@H]3C[C@H](O)[C@]12C [cholic acid]
OAT4 [1]
  inhibition of transport of ^3H-estrone sulfate by OAT4: significantly inhibited

## O=C(O)Cc1ccccc1Nc1c(Cl)cccc1Cl [diclofenac]
OAT4 [1]
  inhibition of transport of ^3H-estrone sulfate by OAT4: significantly inhibited

## CC(C)Cc1ccc(C(C)C(=O)O)cc1 (stereo not drawn) [ibuprofen]
OAT4 [1]
  inhibition of transport of ^3H-estrone sulfate by OAT4: significantly inhibited

## COc1ccc2c(c1)c(CC(=O)O)c(C)n2C(=O)c1ccc(Cl)cc1 [indomethacin]
OAT4 [1]
  inhibition of transport of ^3H-estrone sulfate by OAT4: significantly inhibited

## Nc1cc(N2CCCCC2)nc(N)[n+]1OS(=O)(=O)[O-] [minoxidil sulfate]
OAT4 [2]
  interaction with OAT4 (inhibitory test): all sulfate conjugates except minoxidil sulfate showed an interaction

## C[C@@H]1Cc2c(Cl)cc(C(=O)N[C@@H](Cc3ccccc3)C(=O)O)c(O)c2C(=O)O1 [ochratoxin A]
OAT4 [3]; Xenopus laevis oocytes injected with OAT4 cRNA, radiolabeled substrate, FIG. 1, listed as 3H-ochratoxin A
  incorporation (uptake) by oocytes expressing OAT4: incorporated; also recorded: showed incorporation

## CC1(C)S[C@@H]2[C@H](NC(=O)Cc3ccccc3)C(=O)N2[C@H]1C(=O)O [penicillin G]
OAT4 [1]
  inhibition of transport of ^3H-estrone sulfate by OAT4: significantly inhibited

## CCCN(CCC)S(=O)(=O)c1ccc(C(=O)O)cc1 [probenecid]
OAT4 [1]
  inhibition of transport of ^3H-estrone sulfate by OAT4: significantly inhibited

## C[C@H](CCC(=O)NCCS(=O)(=O)O)[C@H]1CC[C@H]2[C@@H]3[C@H](O)C[C@@H]4C[C@H](O)CC[C@]4(C)[C@H]3C[C@H](O)[C@]12C [taurocholic acid]
OAT4 [1]
  inhibition of transport of ^3H-estrone sulfate by OAT4: significantly inhibited

## CC[N+](CC)(CC)CC [tetraethylammonium]
OAT4 [3]
  incorporation (uptake) by oocytes expressing OAT4: no incorporation was noted
OAT4 [1]
  inhibition of transport of ^3H-estrone sulfate by OAT4: did not show an inhibiting action; also recorded: did not show any inhibiting action

## O=C(O)[C@H]1O[C@@H](Oc2cccc3ccccc23)[C@H](O)[C@@H](O)[C@@H]1O [α-naphthyl-β-glucuronide]
OAT4 [2]
  interaction with OAT4 (inhibitory test): only a weak interaction with OAT4 except α-naphthyl-β-glucuronide

## dehydroepiandrosterone sulfate
OAT4 [3]; Xenopus laevis oocytes injected with OAT4 cRNA, radiolabeled substrate, FIG. 1, listed as 3H-dehydroepiandrosterone sulfate
  incorporation (uptake) by oocytes expressing OAT4: incorporated; also recorded: showed incorporation

## estrone sulfate
OAT4 [3]; Xenopus laevis oocytes injected with OAT4 cRNA, radiolabeled substrate, FIG. 1, listed as 3H-estrone sulfate
  incorporation (uptake) by oocytes expressing OAT4: incorporated; also recorded: showed incorporation
OAT4 [4]
  change in transport of estrone sulfate via OAT4 on cation substitution: no change
OAT4 [5]
  Km: 1.01 ± 0.15 µM
